Experimental data reported in patent publication US20060263802A1 (priority 2003, published 2006).

Tests used:
Type in all cases: binding
[1] = tested on: human monoclonal antibody CR57
[2] = tested on: human monoclonal antibody CRJB
[3] = tested on: human monoclonal antibody CR57; remark: listed apart in the source
[4] = tested on: human monoclonal antibody CRJA
[5] = tested on: human monoclonal antibody CRJB; remark: listed apart in the source
[6] = tested on: human monoclonal antibody CRJA; remark: listed apart in the source

Row | Sequence | Binding of CR57 (10 μg/ml) to looped/cyclic peptide (PEPSCAN-ELISA signal) [1] | Binding of CRJB (10 μg/ml) to looped/cyclic peptide (PEPSCAN-ELISA signal) [2] | Binding of CR57 to linear peptide (PEPSCAN-ELISA signal) [3] | Binding of CRJA to linear peptide (PEPSCAN-ELISA signal) [4] | Binding of CRJB to linear peptide (PEPSCAN-ELISA signal) [5] | Binding of CRJA (10 μg/ml) to looped/cyclic peptide (PEPSCAN-ELISA signal) [6] | Binding of CR57 (10 μg/ml) to looped/cyclic peptide (PEPSCAN-ELISA) [1] | Binding of CRJB (10 μg/ml) to looped/cyclic peptide (PEPSCAN-ELISA) [2] | binding of antibody CR57 to linear peptide (PEPSCAN OD) [3] | strength of binding of CR57 (OD value compared with the other peptides / twice the average value) [3] | Binding of CRJA (10 μg/ml) to looped/cyclic peptide (PEPSCAN-ELISA) [6] | Binding of CR57 to looped/cyclic peptide (PEPSCAN-ELISA signal) [1] | Binding of CRJB to looped/cyclic peptide (PEPSCAN-ELISA signal) [2] | Binding of human monoclonal antibody CR57 to linear peptide (PEPSCAN-ELISA signal) [3] | Binding of human monoclonal antibody CRJA to linear peptide (PEPSCAN-ELISA signal) [4] | Binding of human monoclonal antibody CRJB to linear peptide (PEPSCAN-ELISA signal) [5] | Binding of CRJA to looped/cyclic peptide (PEPSCAN-ELISA signal) [6]
1 | AAYNWKMAGDPRYEE | 104 | 90 | 68 | 78 | 106 | 78 | – | – | – | – | – | – | – | – | – | – | –
2 | ACKLKLCGVLGLRLM | – | – | 148 | 79 | 117 | – | 111 | 92 | bound | lower than twice the average value | 71 | – | – | – | – | – | –
3 | ACRAAYNWKMAGDPR | 138 | 93 | 82 | 93 | 116 | 110 | – | – | – | – | – | – | – | – | – | – | –
4 | ADAHYKSVRTWNEIL | – | – | 56 | 93 | 100 | – | 69 | 82 | – | – | 90 | – | – | – | – | – | –
5 | ADLDPYDRSLHSRVF | 93 | 73 | 70 | 100 | 121 | 92 | – | – | – | – | – | – | – | – | – | – | –
6 | ADPSTVFKDGDEAED | – | – | – | – | – | – | – | – | – | – | – | 118 | 72 | 147 | 101 | 152 | 101
7 | AEDFVEVHLPDVHNQ | – | – | – | – | – | – | – | – | – | – | – | 117 | 90 | 123 | 114 | 138 | 101
8 | AENYTNFVGYVTTTF | 58 | 68 | 66 | 74 | 106 | 46 | – | – | – | – | – | – | – | – | – | – | –
9 | AGDPRYEESLHNPYP | 64 | 54 | 40 | 83 | 101 | 58 | – | – | – | – | – | – | – | – | – | – | –
10 | AHYKSVRTWNEILPS | – | – | 112 | 106 | 160 | – | 106 | 106 | – | – | 104 | – | – | – | – | – | –
11 | AIKMNGFTCTGVVTE | 69 | 79 | 47 | 93 | 103 | 71 | – | – | – | – | – | – | – | – | – | – | –
12 | ALESIMTTKSVSFRR | – | – | 97 | 107 | 132 | – | 136 | 111 | – | – | 108 | – | – | – | – | – | –
13 | AMQTSNETKWCPPDQ | – | – | 104 | 85 | 114 | – | 84 | 58 | – | – | 90 | – | – | – | – | – | –
14 | ASKGSETCGFVDERG | – | – | 97 | 106 | 108 | – | 96 | 94 | – | – | 120 | – | – | – | – | – | –
15 | AVSSTYCSTNHDYTI | 129 | 79 | 71 | 102 | 105 | 91 | – | – | – | – | – | – | – | – | – | – | –
16 | AYNWKMAGDPRYEES | 96 | 77 | 96 | 90 | 94 | 72 | – | – | – | – | – | – | – | – | – | – | –
17 | AYTIFNKTLMEADAH | – | – | 86 | 98 | 121 | – | 118 | 78 | – | – | 97 | – | – | – | – | – | –
18 | CDIFTNSRGKRASKG | 1 | 90 | 42 | 133 | 104 | 101 | – | – | – | – | – | – | – | – | – | – | –
19 | CGFVDERGLYKSLKG | – | – | 72 | 94 | 115 | – | 85 | 76 | – | – | 90 | – | – | – | – | – | –
20 | CGVLGLRLMDGTWVA | – | – | 99 | 96 | 117 | – | 110 | 91 | – | – | 101 | – | – | – | – | – | –
21 | CHPHVNGVFFNGIIL | – | – | 97 | 94 | 150 | – | 113 | 101 | – | – | 105 | – | – | – | – | – | –
22 | CKLKLCGVLGLRLMD | – | – | 410 | 88 | 111 | – | 64 | 74 | bound | – | 91 | – | – | – | – | – | –
23 | CLDALESIMTTKSVS | – | – | 101 | 106 | 146 | – | 111 | 90 | – | – | 123 | – | – | – | – | – | –
24 | CLRVGGRCHPHVNGV | – | – | 102 | 103 | 132 | – | 101 | 104 | – | – | 111 | – | – | – | – | – | –
25 | CPNNLVVEDEGCTNL | 79 | 54 | 77 | 75 | 97 | 84 | – | – | – | – | – | – | – | – | – | – | –
26 | CPPDQLVNLHDFRSD | – | – | 93 | 115 | 137 | – | 137 | 123 | – | – | 92 | – | – | – | – | – | –
27 | CRAAYNWKMAGDPRY | 107 | 68 | 87 | 113 | 118 | 111 | – | – | – | – | – | – | – | – | – | – | –
28 | CSGVAVSSTYCSTNH | 94 | 90 | 110 | 106 | 165 | 94 | – | – | – | – | – | – | – | – | – | – | –
29 | CSTNHDYTIWMPENP | 47 | 72 | 52 | 58 | 106 | 41 | – | – | – | – | – | – | – | – | – | – | –
